pIC50: −log10 of the molar value.

For the experiment, the target named is T1, Recombinant human renin (Homo sapiens, UniProt P00797).
T1 construct: purchased Cayman 10006217
T1 sequence (P00797 67-406): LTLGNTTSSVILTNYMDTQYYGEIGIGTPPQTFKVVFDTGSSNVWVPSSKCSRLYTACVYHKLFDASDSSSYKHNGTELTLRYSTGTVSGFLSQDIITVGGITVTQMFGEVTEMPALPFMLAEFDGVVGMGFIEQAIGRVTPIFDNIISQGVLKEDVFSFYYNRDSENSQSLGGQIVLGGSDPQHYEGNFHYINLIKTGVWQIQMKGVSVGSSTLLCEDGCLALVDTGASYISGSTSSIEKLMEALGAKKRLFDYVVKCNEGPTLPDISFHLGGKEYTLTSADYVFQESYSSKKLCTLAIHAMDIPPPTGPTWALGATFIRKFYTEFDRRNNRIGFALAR
The experiment is described as follows: Inhibition of renin (fluorogenic peptide substrate). In kind it is biochemical. Particulars: recombinant human renin 5 nM, fluorogenic peptide substrate 10 μM, 2 h at room temperature, Tris buffer pH 8; compounds tested as the obtained salt. As to the method: Recombinant human renin (Cayman, no. 10006217) at a concentration of 5 nM was incubated with the test compounds at various concentrations and the synthetic substrate Dabcyl-γ-Abu-Ile-His-Pro-Phe-His-Leu-Val-Ile-His-Thr-EDANS (Bachem, no. M-2050; Dabcyl means the 4-(4-dimethylamino-phenylazo)-benzoyl group and EDANS means the amide with 5-[(2-aminoethyl)amino]-naphthalene-1-sulfonic acid) at a concentration of 10 μM for 2 h at room temperature in 0.05 M Tris buffer (pH 8) containing 0.1 M NaCl, 2.5 mM EDTA and 1.25 mg/ml bovine serum albumin. The increase in fluorescence, which is due to fluorescence resonance energy transfer, was recorded at an excitation wavelength of 330 nm and an emission wavelength of 485 nm in a microplate spectrofluorometer. Inhibitory concentrations IC50 were calculated from the percentage of inhibition of renin activity as a function of the concentration of the test compound. […] Representative IC50 values, which were determined with the compounds in the form of the obtained salt indicated in the examples above, are listed in Table 4.
As for `Cc1c(F)cccc1Cc1c(-c2ccccc2)c2ccccn2c1C(=O)N1CCNCC1` [Example 1, [2-(3-Fluoro-2-methyl-benzyl)-1-phenyl-indolizin-3-yl]-piperazin-1-yl-methanone], the pIC50 was 8.15.

As to `Cc1c(F)cccc1Cc1c(C2CCCCC2)c2ccccn2c1C(=O)N1CCNCC1` [Example 2, [1-Cyclohexyl-2-(3-fluoro-2-methyl-benzyl)-indolizin-3-yl]-piperazin-1-yl-methanone], the pIC50 is 7.42.

With `Cc1c(F)cccc1Cc1c(-c2ccccc2)c2ccccn2c1C(=O)N1CCN[C@@H](CC(=O)NCC2CCOCC2)C1` [Example 6, 2-{(S)-4-[2-(3-Fluoro-2-methyl-benzyl)-1-phenyl-indolizine-3-carbonyl]-piperazin-2-yl}-N-(tetrahydropyran-4-ylmethyl)-acetamide], the pIC50 is 8.59.

Take `Cc1c(F)cccc1Cc1c(-c2ccccc2)c2ccccn2c1C(=O)N1CCN[C@@H](CC(=O)NCC(C)(C)C(N)=O)C1` [Example 7, 3-(2-{(S)-4-[2-(3-Fluoro-2-methyl-benzyl)-1-phenyl-indolizine-3-carbonyl]-piperazin-2-yl}-acetylamino)-2,2-dimethyl-propionamide]: the pIC50 was 8.59.

For `Cc1c(F)cccc1Cc1c(-c2ccccc2)c2cccnn2c1C(=O)N1CCNCC1` [Example 9, [6-(3-Fluoro-2-methyl-benzyl)-5-phenyl-pyrrolo[1,2-b]pyridazin-7-yl]-piperazin-1-yl-methanone], the pIC50 is 8.37.

Consider `Cc1c(F)cccc1Cc1c(-c2ccccc2)c2cc(O)cnn2c1C(=O)N1CCNCC1` [Example 10, [6-(3-Fluoro-2-methyl-benzyl)-3-hydroxy-5-phenyl-pyrrolo[1,2-b]pyridazin-7-yl]-piperazin-1-yl-methanone], for which the pIC50 was 8.09.

In the case of `Cc1c(F)cccc1Cc1c(C(=O)N2CCNCC2)c2ccccn2c1-c1ccccc1` [Example 11, [2-(3-Fluoro-2-methyl-benzyl)-3-phenyl-indolizin-1-yl]-piperazin-1-yl-methanone], the pIC50 was 7.64.

Take `Cc1c(F)cccc1Cc1c(C(=O)N2CCNCC2)c2cc(Br)ccn2c1-c1ccccc1` [Example 12, [7-Bromo-2-(3-fluoro-2-methyl-benzyl)-3-phenyl-indolizin-1-yl]-piperazin-1-yl-methanone]: the pIC50 is 6.44.

Consider `CNC(=O)c1ccc2c(-c3ccccc3)c(Cc3cccc(F)c3C)c(C(=O)N3CCNCC3)n2c1` [Example 13, 2-(3-Fluoro-2-methyl-benzyl)-1-phenyl-3-(piperazine-1-carbonyl)-indolizine-6-carboxylic acid methylamide], for which the pIC50 was 7.19.

As for `Cc1c(F)cccc1Cc1c(C(=O)N2CCN[C@@H](C)C2)c2ccccn2c1-c1ccccc1` [Example 15, [2-(3-Fluoro-2-methyl-benzyl)-3-phenyl-indolizin-1-yl)-((S)-3-methyl-piperazin-1-yl)-methanone], the pIC50 is 7.12.

`Cc1cccc(C)c1Cc1c(-c2ccccc2)c2ccccn2c1C(=O)N1CCN[C@H](C)C1` [Example 17, [2-(2,6-Dimethyl-benzyl)-1-phenyl-indolizin-3-yl)-((R)-3-methyl-piperazin-1-yl)-methanone]: the negative logarithm of the IC50 (pIC50) is 6.06.

Consider `Cc1c(F)cccc1Cc1c(-c2cccc(F)c2)c2ccccn2c1C(=O)N1CCNCC1` [Example 20, [2-(3-fluoro-2-methyl-benzyl)-1-(3-fluoro-phenyl)-indolizin-3-yl]-piperazin-1-yl-methanone], for which the pIC50 was 8.47.

Regarding `Cc1c(F)cccc1Cc1c(-c2ccccc2)c2ccccn2c1C(=O)N1CCN[C@@H](CO)C1` [Example 22], the pIC50 was 7.00.

Take `CNC(=O)CC[C@H]1CN(C(=O)c2c(Cc3cccc(F)c3C)c(-c3ccccc3)c3ccccn23)CCN1` [Example 26]: the pIC50 was 6.64.

As for `COC(=O)CCNC(=O)C[C@H]1CN(C(=O)c2c(Cc3cccc(F)c3C)c(-c3ccccc3)c3ccccn23)CCN1` [Example 30], the negative-log IC50 (pIC50) is 7.51.

Consider `Cc1c(F)cccc1Cc1c(-c2ccccc2)c2ccccn2c1C(=O)N1CCN[C@@H](CC(=O)NCCS(C)(=O)=O)C1` [Example 31], for which the pIC50 was 7.68.

With `Cc1c(F)cccc1Cc1c(-c2ccccc2)c2ccccn2c1C(=O)N1CCN[C@@H](CC(=O)NCc2cccnc2)C1` [Example 32], the pIC50 is 7.42.

With `COc1ccn2c(C(=O)N3CCNCC3)c(Cc3cccc(F)c3C)c(-c3ccccc3)c2c1` [Example 35, [2-(3-fluoro-2-methyl-benzyl)-7-methoxy-1-phenyl-indolizin-3-yl]-piperazin-1-yl-methanone], the pIC50 was 7.55.

For the compound `Cc1c(F)cccc1Cc1c(-c2ccccc2)c2cc(C(=O)N3CCCCC3)cnn2c1C(=O)N1CCN[C@@H](CC(=O)NCCO)C1` [Example 39], the pIC50 is 8.13.

Consider `COCCN(C)C(=O)C[C@H]1CN(C(=O)c2c(Cc3cccc(F)c3C)c(-c3ccccc3)c3cc(C(=O)N(C)C)cnn23)CCN1` [Example 46], for which the pIC50 is 8.00.

Usually pIC50 stands for the negative decadic logarithm of the IC50, by convention in mol/L.
